Source: patent US7138543B2, “Thiolalkyl benzoic acid derivatives” (Guilford Pharmaceuticals Inc., priority 2001, dated 2006)

What was measured:
[1] = test system: chronic constrictive injury-induced rats; test: Neuropathic pain in CCI model (sciatic nerve ligation); type: in vivo
Protocol: In vivo Assay of NAALADase Inhibitors on Neuropathic Pain in CCI Model
Sciatic nerve ligation, consisting of 4 ligatures tied loosely around the sciatic nerve at 1 mm intervals proximal to the nerve trifurcation, was performed on rats. […] The rats were habituated to a Hargreaves apparatus. An infrared heat source was directed onto the dorsal surface of each rat's hindpaws and the time taken for the rat to withdraw its paws was noted. The difference in scores between the latency of the response for the paw on the operated side versus the paw on the unoperated control side was determined.

ischemic cell cultures = test: Neuroprotective effect with growth factor neutralizing antibodies in in vitro ischemia model; type: cell-based
Protocol: TGF-β neutralizing antibodies were then added to the ischemic cell cultures.

TGF-β1 [2] = test: TGF-β1 levels by microdialysis in MCAO rats; type: in vivo; settings: during occlusion and reperfusion, FIG. 6
TGF-β2 = test: Effect on TGF-β2 in in vitro ischemia model; type: cell-based; settings: ischemic cell cultures, FIG. 2
Protocol: (§1) Effect of NAALADase Inhibition on TGF-β in In vitro Ischemia Model Compound C was added to ischemia cell cultures to determine its effect on TGF-β levels during stroke.

TGF-β1 [3] = test: Effect on TGF-β1 in in vitro ischemia model; type: cell-based; settings: ischemic cell cultures, FIG. 1
Protocol: as §1

[4] = test system: rats subjected to middle cerebral artery occlusion; test: Neuroprotective effect with TGF-β neutralizing antibodies in MCAO rats; type: in vivo; settings: FIG. 5
Source text: The effect of TGF-β neutralizing antibodies on the neuroprotective effect of Compound C was also studied in rats following MCAO.
One of ordinary skill in the art can appreciate that the regulation of TGF-β's by NAALADase inhibitors may have implications not only in stroke, but also in other diseases, disorders and conditions including, without limitation, neurological diseases, psychiatric diseases, demyelinating diseases, prostate cancer, inflammation, diabetes and angiogenesis.

O=C(O)CCC(CP(=O)(O)O)C(=O)O (centres unmarked) [Compound C, 2-(phosphonomethyl)pentanedioic acid]
withdrawal latency difference scores between operated and unoperated paws ([1]; 50 mg/kg i.p. daily starting 10 days post surgery, FIG. 8): dramatically normalized the difference scores | start of significant effect on difference scores ([1]; 50 mg/kg i.p. daily, persisted to end of study (21 days of daily dosing)): 11 days of drug treatment | neuroprotective effect in presence of TGF-β neutralizing antibodies (ischemic cell cultures; FIG. 3): blocked the neuroprotective effect | neuroprotective effect in presence of FGF antibody (ischemic cell cultures; FIG. 4): did not block the neuroprotective effect | TGF-β1 levels (TGF-β1 [2]): significant rise in TGF-β1 levels | TGF-β2 concentration (TGF-β2): increased concentration | TGF-β1 concentration (TGF-β1 [3]): increased concentration | neuroprotective effect in presence of TGF-β neutralizing antibodies [4]: significantly attenuated the neuroprotective effect
